Assay results taken from PubChem BioAssay (NCI).
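96-well plates; 48 h exposure; 5 concentrations. Endpoints by linear interpolation between flanking doses. Not reached: highest tested concentration assigned. GI50 = concentration required for 50% inhibition of growth. TGI: concentration producing complete growth inhibition.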

Experiments:
Experiment in all cases: DTP human tumour cell line panel, 48 h
[1] = system: M14 melanoma
[2] = system: SK-OV-3 ovarian
[3] = system: U251 CNS
[4] = system: BT-549 breast
[5] = system: MALME-3M melanoma
[6] = system: K-562 leukemia
[7] = system: DU-145 prostate
[8] = system: CCRF-CEM leukemia
[9] = system: HCT-15 colon
[10] = system: NCI-H226 lung

Row | Structure (SMILES) | TGI [1] | TGI [2] | TGI [3] | TGI [4] | TGI [5] | TGI [6] | TGI [7] | TGI [8] | TGI [9] | TGI [10] | GI50 [1] | GI50 [2] | GI50 [3] | GI50 [4] | GI50 [5] | GI50 [6] | GI50 [7] | GI50 [8] | GI50 [9] | GI50 [10]
1 | CCOC(=O)/C(=N\OC)C(O)C(F)(F)F (stereo not drawn) | > 100 µM | > 100 µM | > 100 µM | > 100 µM | > 100 µM | > 100 µM | > 100 µM | > 100 µM | > 100 µM | > 100 µM | – | – | – | – | – | – | – | – | – | –
2 | Cc1cc(NCCCNc2ccnc3cc(Cl)ccc23)nc(N2CCN(C)CC2)n1 | 3.61 µM | 45.6 µM | 17.2 µM | 53.3 µM | 4.47 µM | 11.7 µM | 17.9 µM | 14.7 µM | 22.8 µM | 22 µM | 1.94 µM | 7.66 µM | 3.91 µM | 13.1 µM | 2.12 µM | 1.86 µM | 5.5 µM | 2.59 µM | 3.29 µM | 3.39 µM
3 | Cn1ccnc1C(=O)/C=C/c1ccc(C(=O)Nc2ccc(S(F)(F)(F)(F)F)cc2)cc1 | > 14.3 µM | > 14.3 µM | > 14.3 µM | > 14.3 µM | > 14.3 µM | > 14.3 µM | > 14.3 µM | > 14.3 µM | 4.92 µM | > 14.3 µM | 9.17 µM | > 14.3 µM | 0.506 µM | 2.62 µM | 5.76 µM | 0.385 µM | 2.41 µM | 0.738 µM | 0.799 µM | 6.57 µM
4 | CC(=O)N1N=C(c2ccc(Nc3nc(Nc4ccc(Cl)cc4)nc(Nc4ccc(Cl)cc4)n3)cc2)CC1c1ccc([N+](=O)[O-])cc1 (stereo not drawn) | 43.4 µM | 34.2 µM | > 100 µM | 88.9 µM | 71.7 µM | 28.7 µM | > 54.9 µM | > 32.2 µM | > 94.3 µM | > 82.7 µM | 6.8 µM | 4.3 µM | 7.42 µM | 10.6 µM | 14.7 µM | 2.65 µM | 5.56 µM | 2.92 µM | 4.11 µM | 12.9 µM
5 | CCOc1ccc(-c2cnnn2-c2nonc2-n2cccc2)cc1 | 0.365 µM | 1.02 µM | > 78.7 µM | – | > 78.3 µM | > 100 µM | 0.905 µM | > 100 µM | > 100 µM | > 100 µM | 0.122 µM | 0.274 µM | 0.339 µM | 0.363 µM | 0.383 µM | 0.0638 µM | 0.286 µM | 0.296 µM | 0.251 µM | 1.52 µM
6 | CCCCOc1ccc(NC(=O)n2nc(N)c3ccccc32)cc1 | 42.2 µM | > 100 µM | > 100 µM | 37 µM | 48.4 µM | 50.4 µM | 70 µM | 4.68 µM | 70.4 µM | > 85.2 µM | 17.7 µM | 49.2 µM | 30.9 µM | 17.6 µM | 18.9 µM | 11.5 µM | 19.8 µM | 0.0755 µM | 16.9 µM | 21 µM
7 | COc1cc2c(cc1O)-c1c(cnn1-c1ccc([N+](=O)[O-])cc1)CCC2 | 49.6 µM | > 100 µM | 24.9 µM | 76.1 µM | 29.2 µM | > 100 µM | > 100 µM | 30.6 µM | 30.5 µM | 47.5 µM | – | – | – | – | – | – | – | – | – | –
8 | COc1ccc2c(c1)=C(C=C1C=CN(O)C=C1)C(=O)N=2 | 65.9 µM | 54.5 µM | > 100 µM | 88.1 µM | 55.9 µM | > 100 µM | > 100 µM | > 79.1 µM | > 75.9 µM | 97.5 µM | 24.6 µM | 18.8 µM | 27.3 µM | 22.6 µM | 24.3 µM | 3.55 µM | 32.5 µM | 25.3 µM | 25 µM | 25.7 µM
9 | Fc1ccc(-c2nn3c(-c4ccc(F)c(Cl)c4)nnc3s2)cc1 | > 50 µM | > 50 µM | > 50 µM | > 50 µM | > 50 µM | > 50 µM | > 50 µM | 17.8 µM | > 50 µM | > 50 µM | > 50 µM | 19.4 µM | 18.5 µM | 33.2 µM | > 50 µM | 34.3 µM | 36.3 µM | 5.52 µM | 22.7 µM | > 50 µM
10 | O=C1C2C(C(=O)[N]1[Hg][c]1cccs1)C1(Cl)C(Cl)=C(Cl)C2(Cl)C1(Cl)Cl (stereo not drawn) | 2.68 µM | 17.9 µM | 1.68 µM | 2.24 µM | 2.79 µM | 3.41 µM | 4.72 µM | – | 2.27 µM | 37.8 µM | 1.14 µM | 5.71 µM | 0.466 µM | 0.984 µM | 1.22 µM | 0.291 µM | 1.8 µM | 0.29 µM | 0.821 µM | 6.88 µM
11 | CCCc1cc(O)c2c3c(c(=O)oc2c1)CN(C)CC3 | > 100 µM | > 100 µM | > 100 µM | > 100 µM | > 100 µM | > 100 µM | > 100 µM | > 100 µM | > 100 µM | > 100 µM | 32.5 µM | 85 µM | 56.4 µM | 48.1 µM | 35.1 µM | 31.8 µM | > 100 µM | 69.1 µM | 39.9 µM | > 100 µM
12 | CCC[CH2][Sn]([CH2]CCC)([O]C(=O)c1cc(F)ccc1F)[O][Sn]([CH2]CCC)([CH2]CCC)[O]C(=O)c1cc(F)ccc1F | 1.25 µM | 2.34 µM | 0.584 µM | 0.946 µM | 0.339 µM | 6.22 µM | 1.92 µM | 2.7 µM | 0.87 µM | 1.25 µM | 0.367 µM | 1.03 µM | 0.175 µM | 0.225 µM | 0.125 µM | 0.0372 µM | 0.646 µM | 0.0113 µM | 0.254 µM | 0.354 µM
13 | Cn1cc(C2=C(c3cn(CCO)c4ccccc34)C(=O)NC2=O)c2ccccc21 | > 25 µM | > 21.9 µM | 13.7 µM | 11.9 µM | 17.5 µM | > 25 µM | > 23.8 µM | > 20 µM | > 25 µM | > 19.6 µM | 2.12 µM | 2.61 µM | 1.98 µM | 3.14 µM | 6.9 µM | 1.12 µM | 6.94 µM | 1.37 µM | 1.57 µM | 4.76 µM
